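Cultured in 96-well plates, cells were exposed to test compound for 48 hours across five concentrations. GI50 is the concentration that inhibits growth by half. At the TGI there is no net growth.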
How the values were obtained:
Experiment in all cases: inhibition of tumour cell growth, NCI panel, 48 h
[1] = system: CCRF-CEM leukemia
[2] = system: MDA-N
[3] = system: HCT-116 colon
[4] = system: HCT-15 colon
[5] = system: COLO 205 colon
[6] = system: K-562 leukemia
[7] = system: IGROV1 ovarian
[8] = system: UO-31 renal
[9] = system: TK-10 renal
[10] = system: SK-MEL-2 melanoma
[11] = system: OVCAR-4 ovarian
[12] = system: SW-620 colon
[13] = system: SF-295 CNS
[14] = system: A498 renal
[15] = system: SR leukemia
[16] = system: UACC-62 melanoma
[17] = system: RXF 393 renal
[18] = system: SN12C renal
[19] = system: SNB-19 CNS
[20] = system: NCI-H522 lung
[21] = system: NCI-H226 lung
[22] = system: NCI-H460 lung
[23] = system: OVCAR-5 ovarian
[24] = system: EKVX NSCLC
[25] = system: RPMI-8226 leukemia
[26] = system: DU-145 prostate
[27] = system: 786-0 renal
[28] = system: MDA-MB-435
[29] = system: LOX IMVI melanoma
[30] = system: PC-3 prostate
[31] = system: SF-539 CNS
[32] = system: U251 CNS
[33] = system: UACC-257 melanoma
[34] = system: HT29 colon
[35] = system: A549 NSCLC
[36] = system: NCI/ADR-RES ovarian
[37] = system: ACHN renal
[38] = system: HL-60(TB) leukemia
[39] = system: SK-MEL-5 melanoma
[40] = system: OVCAR-8 ovarian
[41] = system: MOLT-4 leukemia
[42] = system: HOP-92 NSCLC
[43] = system: MCF7 breast
[44] = system: OVCAR-3 ovarian
[45] = system: CAKI-1 renal
[46] = system: M14 melanoma
[47] = system: SK-MEL-28 melanoma
[48] = system: MDA-MB-231 breast
[49] = system: NCI-H23 lung
[50] = system: BT-549 breast
[51] = system: MALME-3M melanoma
[52] = system: HS 578T breast
[53] = system: HCC-2998 colon
[54] = system: SK-OV-3 ovarian
[55] = system: T-47D breast
[56] = system: KM12 colon
[57] = system: HOP-62 NSCLC
[58] = system: SNB-75 CNS
[59] = system: SF-268 CNS

C[C@]12CCC(N3CCCC3)CC1=CC[C@@H]1[C@@H]2CC[C@]2(C)C(O)[C@H](n3ccnc3)C[C@@H]12 (stereo not given in full)
TGI [1]: > 100000 nM
TGI [2]: > 100000 nM
TGI [3]: > 100000 nM
TGI [4]: > 100000 nM
TGI [5]: > 100000 nM
TGI [6]: > 100000 nM
TGI [7]: > 100000 nM
TGI [8]: > 100000 nM
TGI [9]: > 100000 nM
TGI [10]: > 100000 nM
TGI [11]: > 100000 nM
TGI [12]: > 100000 nM
TGI [13]: > 100000 nM
TGI [14]: > 100000 nM
TGI [15]: 43900 nM
TGI [16]: > 100000 nM
TGI [17]: 72800 nM
TGI [18]: > 100000 nM
TGI [19]: > 100000 nM
TGI [20]: > 100000 nM
TGI [21]: > 100000 nM
TGI [22]: > 100000 nM
TGI [23]: > 100000 nM
TGI [24]: > 100000 nM
TGI [25]: > 100000 nM
TGI [26]: > 100000 nM
TGI [27]: > 100000 nM
TGI [28]: > 100000 nM
TGI [29]: > 100000 nM
TGI [30]: > 100000 nM
TGI [31]: 46500 nM
TGI [32]: > 100000 nM
TGI [33]: > 100000 nM
TGI [34]: > 100000 nM
TGI [35]: > 100000 nM
TGI [36]: > 100000 nM
TGI [37]: > 100000 nM
TGI [38]: 36100 nM
TGI [39]: > 100000 nM
TGI [40]: > 100000 nM
TGI [41]: 83600 nM
TGI [42]: > 100000 nM
TGI [43]: > 100000 nM
TGI [44]: > 100000 nM
TGI [45]: > 100000 nM
TGI [46]: 34400 nM
TGI [47]: 68500 nM
TGI [48]: > 100000 nM
TGI [49]: > 100000 nM

COc1ccc(/C=C2\COc3ccc(O)c(O)c3C2=O)cc1
GI50 [1]: 333 nM
TGI [1]: 9820 nM
GI50 [50]: 511 nM
TGI [50]: 4850 nM
GI50 [3]: 2000 nM
TGI [3]: 6850 nM
GI50 [4]: 492 nM
TGI [4]: 2740 nM
GI50 [5]: 3150 nM
TGI [5]: 10800 nM
GI50 [6]: 330 nM
TGI [6]: > 100000 nM
GI50 [51]: 751 nM
TGI [51]: 2690 nM
GI50 [7]: 522 nM
TGI [7]: 2490 nM
GI50 [8]: 606 nM
TGI [8]: 1970 nM
GI50 [9]: 1570 nM
TGI [9]: > 27100 nM
GI50 [52]: 422 nM
TGI [52]: > 100000 nM
GI50 [10]: 517 nM
TGI [10]: 26900 nM
GI50 [11]: 2380 nM
TGI [11]: > 33200 nM
GI50 [12]: 1310 nM
TGI [12]: 4820 nM
GI50 [13]: 4620 nM
TGI [13]: > 100000 nM
GI50 [14]: 1000 nM
TGI [14]: 5550 nM
GI50 [15]: 403 nM
TGI [15]: > 100000 nM
GI50 [16]: 513 nM
TGI [16]: 2410 nM
GI50 [17]: 440 nM
TGI [17]: 1310 nM
GI50 [18]: 391 nM
TGI [18]: 2530 nM
GI50 [19]: 2980 nM
TGI [19]: > 100000 nM
GI50 [53]: 2450 nM
TGI [53]: 6280 nM
GI50 [20]: 159 nM
TGI [20]: 402 nM
GI50 [21]: 2370 nM
TGI [21]: 6900 nM
GI50 [22]: 2460 nM
TGI [22]: 7940 nM
GI50 [23]: 2190 nM
TGI [23]: 5850 nM
GI50 [24]: 2470 nM
TGI [24]: > 61300 nM
GI50 [25]: 317 nM
TGI [25]: 1200 nM
GI50 [26]: 1080 nM
TGI [26]: > 31200 nM
GI50 [54]: 923 nM
TGI [54]: > 100000 nM
GI50 [55]: 1170 nM
TGI [55]: 4710 nM
GI50 [56]: 924 nM
TGI [56]: 3950 nM
GI50 [27]: 708 nM
TGI [27]: 5270 nM
GI50 [28]: 257 nM
TGI [28]: 984 nM
GI50 [57]: 2240 nM
TGI [57]: 16200 nM
GI50 [29]: 369 nM
TGI [29]: 1520 nM
GI50 [30]: 741 nM
TGI [30]: 23600 nM
GI50 [31]: 325 nM
TGI [31]: 1170 nM
GI50 [32]: 1310 nM
TGI [32]: 6070 nM
GI50 [33]: 1470 nM
TGI [33]: 8970 nM
GI50 [34]: 3270 nM
TGI [34]: 19600 nM
GI50 [35]: 2550 nM
TGI [35]: 16200 nM
GI50 [36]: 329 nM
TGI [36]: 35700 nM
GI50 [37]: 637 nM
TGI [37]: 2000 nM
GI50 [38]: 334 nM
TGI [38]: 2090 nM
GI50 [39]: 329 nM
TGI [39]: 1250 nM
GI50 [40]: 458 nM
TGI [40]: 18700 nM
GI50 [41]: 376 nM
TGI [41]: 20400 nM
GI50 [58]: 572 nM
TGI [58]: > 100000 nM
GI50 [42]: 1140 nM
TGI [42]: 6100 nM
GI50 [43]: 464 nM
TGI [43]: > 100000 nM
GI50 [59]: 1340 nM
TGI [59]: 6580 nM
GI50 [44]: 511 nM
TGI [44]: 4570 nM
GI50 [45]: 951 nM
TGI [45]: 4230 nM
GI50 [46]: 308 nM
TGI [46]: > 48200 nM
GI50 [47]: 1150 nM
TGI [47]: 7470 nM
GI50 [48]: 420 nM
TGI [48]: 3110 nM
GI50 [49]: 2890 nM
TGI [49]: 14900 nM

From PubChem BioAssay (NCI)
